Test results published in PubChem BioAssay (NCI).
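48-hour exposure; five concentrations; linearly interpolated endpoints. Abbreviation: GI50, concentration required for 50% inhibition of growth. TGI: concentration producing complete growth inhibition.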

Legend:
Test in all cases: NCI tumour cell line growth inhibition, 48 h
786-0 renal = system: 786-0 renal
A498 renal = system: A498 renal
NCI-H226 lung = system: NCI-H226 lung
OVCAR-3 ovarian = system: OVCAR-3 ovarian
OVCAR-8 ovarian = system: OVCAR-8 ovarian
SK-MEL-2 melanoma = system: SK-MEL-2 melanoma
SK-MEL-5 melanoma = system: SK-MEL-5 melanoma
SNB-19 CNS = system: SNB-19 CNS
SNB-75 CNS = system: SNB-75 CNS
RXF 393 renal = system: RXF 393 renal

SMILES | TGI (786-0 renal) [µM] | TGI (A498 renal) [µM] | TGI (NCI-H226 lung) [µM] | TGI (OVCAR-3 ovarian) [µM] | TGI (OVCAR-8 ovarian) [µM] | TGI (SK-MEL-2 melanoma) [µM] | TGI (SK-MEL-5 melanoma) [µM] | TGI (SNB-19 CNS) [µM] | TGI (SNB-75 CNS) [µM] | GI50 (786-0 renal) [µM] | GI50 (NCI-H226 lung) [µM] | GI50 (OVCAR-3 ovarian) [µM] | GI50 (OVCAR-8 ovarian) [µM] | GI50 (RXF 393 renal) [µM] | TGI (RXF 393 renal) [µM] | GI50 (SK-MEL-2 melanoma) [µM] | GI50 (SK-MEL-5 melanoma) [µM] | GI50 (SNB-19 CNS) [µM] | GI50 (SNB-75 CNS) [µM] | GI50 (A498 renal) [µM]
CC(=O)NC1=C(C)C(=O)c2c(nc3n2CCC3O)C1=N (stereo unspecified) | 40.4 | 59.6 | 33.1 | 11.1 | 16.7 | 22 | 26.2 | 50.4 | 49.1 | – | – | – | – | – | – | – | – | – | – | –
COC(=O)CNC(=O)[C@@H](OC)[C@@H]1Cc2cc3cc(OC4CC(OC5CC(O)C(O)C(C)O5)C(O)C(C)O4)c(C)c(O)c3c(O)c2C(=O)[C@H]1OC1CC(OC2CC(OC3CC(C)(O)C(O)C(C)O3)C(O)C(C)O2)C(O)C(C)O1 (stereo partly specified) | > 50 | – | 0.414 | 4.27 | > 50 | 0.712 | 0.538 | > 50 | 0.9 | 0.26 | 0.11 | 0.204 | 0.122 | 0.0877 | 0.355 | 0.147 | 0.084 | 0.154 | 0.127 | –
NC(C(=O)[O-])C(=O)[O-].NC1CCCCC1N.[Pt+4] | > 100 | > 100 | – | 24 | > 100 | > 100 | 12 | > 100 | > 100 | 5.79 | – | 2.45 | > 100 | – | – | > 100 | 1.84 | 6.54 | > 100 | 11.6
COc1cc(Nc2nc(N[C@H]3CCCC[C@@H]3N)nc3cc[nH]c(=O)c23)cc(OC)c1 | 18.8 | 10.1 | 12.4 | 21.8 | 19.6 | – | 6.06 | 16.7 | 17.3 | 3.31 | 1.88 | 8.71 | 3.17 | 0.403 | 2.76 | – | 1.22 | 3.01 | 3.27 | 1.01
CN(CCOc1ccc(C#N)cc1)CCOc1ccc(C#N)cc1 | > 100 | > 100 | > 100 | > 100 | > 100 | – | > 100 | > 100 | > 100 | > 100 | > 100 | 29.8 | 29 | 46.8 | > 100 | – | 78.6 | > 100 | > 100 | 14.8
CCC(CC)n1c(C)nc2c1C(=O)c1ccccc1C2=O | > 100 | – | > 100 | 75.7 | > 100 | > 100 | 37.1 | > 100 | > 100 | – | – | – | – | – | > 100 | – | – | – | – | –
CC(C)C1CC(O)O[C@@H]([C@@H](C)[C@H]2CC(=O)[C@@H]3[C@@H]4[C@@H](O)[C@H](O)[C@H]5[C@@H](O)[C@H](O)CC[C@]5(C)[C@H]4CC[C@]23C)C1 (stereo partly specified) | > 100 | – | > 100 | > 100 | > 100 | > 100 | > 100 | > 100 | 54.3 | – | – | – | – | – | 28.9 | – | – | – | – | –
NC(=O)N1N=C2c3ccccc3SC[C@H]2[C@@H]1c1ccccc1 | > 100 | 76.9 | 53.2 | 35.1 | 65.9 | – | 21.8 | > 100 | – | – | – | – | – | – | 26 | – | – | – | – | –
O=C(CSC(=S)N1CCOCC1)Nc1nc2c(s1)CCCC2 | > 100 | > 100 | > 100 | > 100 | > 100 | > 100 | > 100 | – | > 100 | – | – | – | – | – | – | – | – | – | – | –
COc1ccc(-c2cncn2-c2ccc(OC)cc2)cc1 | 49.1 | 34.3 | 98.3 | 45.5 | 52.8 | 42.9 | 33.8 | – | – | 21.9 | 22.5 | 20 | 21.1 | 0.376 | 9.46 | 17.9 | 17.9 | – | – | 16.3
CC/C=C\C/C=C\C/C=C\CCCCCCCC(=O)OCC | > 100 | > 100 | > 100 | > 100 | > 100 | > 100 | > 100 | – | > 100 | – | – | – | – | – | – | – | – | – | – | –
c1cnc2[nH]cc(-c3csc(-c4cn(CCCCN5CCOCC5)c5ccccc45)n3)c2c1 | 3.33 | – | 8.23 | 3.17 | – | 3.87 | 3.16 | 3.49 | 2.54 | 1.85 | 2.29 | 1.64 | – | 1.67 | 3.31 | 1.94 | 1.73 | 1.76 | 1.19 | –
CC(=O)Oc1ccc(O)c(O)c1C/C=C(\C)CC/C=C(\C)CC/C=C(\C)CCC=C(C)C | 2.83 | – | 2.27 | – | 1.79 | 2.9 | – | 2.8 | 1.92 | – | – | – | – | – | 2.47 | – | – | – | – | –
S=c1[nH]c2ccc(Br)cc2c(=S)n1-c1ccccc1 | 96.8 | 98.4 | 83.6 | 78.3 | > 100 | 43.7 | 35.5 | > 100 | 79.1 | – | – | – | – | – | – | – | – | – | – | –
CCOC(=O)C(=O)Nc1c(C)cccc1C | > 100 | – | > 100 | > 100 | > 100 | > 100 | – | > 100 | > 100 | – | – | – | – | – | > 100 | – | – | – | – | –
Cc1ccc(NC(=O)/C(=N\Nc2ccc([N+](=O)[O-])cc2[N+](=O)[O-])C2C(=O)NC(=O)NC2=O)cc1 | > 100 | > 100 | > 100 | > 100 | > 100 | – | > 100 | > 100 | > 100 | – | – | – | – | – | > 100 | – | – | – | – | –
O=NNc1nc(-c2cccnc2)nc2ccccc12 | > 100 | > 100 | > 100 | > 100 | > 100 | – | > 100 | > 100 | > 100 | – | – | – | – | – | – | – | – | – | – | –
CC(=O)O[C@@H]1CC2C(C)(C)CCCC2(C)C2=C1C(=O)C(C(C)C)=CC2=O (stereo partly specified) | 6.95 | 2.35 | 2.09 | 3.36 | 15.9 | 3.53 | 1.84 | > 100 | – | 0.781 | 0.518 | 1.51 | 2.64 | 0.757 | 2.27 | 0.95 | 0.581 | 0.87 | – | 1.06
Nc1cc(N)c(N)cc1N | 4.99 | 4.67 | 3.96 | 4.46 | 12.3 | – | 2.02 | 14.3 | 2.87 | 2.27 | 1.93 | 1.97 | 3.15 | 1.73 | 3.19 | – | 0.736 | 3.42 | 1.47 | 1.6
C=C(C)C(=O)O[C@H]1[C@H]2[C@H](OC(=O)[C@H]2C)[C@H](O)[C@@H](C)[C@@H]2C=CC(=O)[C@]21C | 5.21 | 6.56 | 39 | 18.4 | 4.07 | 18.4 | 20.2 | 18.6 | – | – | – | – | – | – | 4.13 | – | – | – | – | –
O=C(O)c1cc(=O)c2[nH]c3ccccc3c2s1 | > 100 | – | – | > 100 | > 100 | > 100 | > 100 | > 100 | > 100 | – | – | – | – | – | > 100 | – | – | – | – | –
Cn1nc(-c2ccccc2)c(C(=O)/C=C/c2ccccc2)c(N2CCOCC2)c1=O | 32.4 | 35 | – | – | > 100 | – | 37.6 | – | – | – | – | – | – | – | 25.9 | – | – | – | – | –
COc1ccc(C(C#N)NNc2nc(C)cc(=O)[nH]2)cc1OC (stereo unspecified) | > 100 | – | > 100 | > 100 | > 100 | > 100 | > 100 | – | > 100 | – | – | – | – | – | > 100 | – | – | – | – | –
CCCCCCCCCCCC[n+]1ccc(CCCCCCCCC)cc1 | 3.07 | 2.37 | – | – | – | – | – | – | 2.57 | 1.38 | – | – | – | 1.36 | 2.86 | – | – | – | 1.26 | 1.02
COC(=O)C1C2C=CC(C2)N1[C@@H](C)c1ccccc1 (stereo partly specified) | > 100 | > 100 | – | > 100 | > 100 | > 100 | > 100 | > 100 | > 100 | – | – | – | – | – | – | – | – | – | – | –
O=C1CC[C@@H](S(=O)(=O)c2ccccc2)[C@@H](/C=C/c2ccccc2)O1 | > 100 | > 100 | > 100 | > 100 | > 100 | – | > 100 | > 100 | > 100 | – | – | – | – | – | > 100 | – | – | – | – | –
CCCCCCCCCCCCCCCC(=O)OCC1OC(n2c(O)c(N=NC(N)=S)c3ccc([N+](=O)[O-])cc32)C(OC(C)=O)C1OC(C)=O (stereo unspecified) | > 100 | – | > 100 | > 100 | > 100 | > 100 | > 100 | > 100 | > 100 | – | – | – | – | – | > 100 | – | – | – | – | –
CC(C)CC1=[N+]=C(NC#N)N=C(CCC(=O)Nc2ccccc2[N+](=O)[O-])C1 | > 100 | > 100 | > 100 | > 100 | > 100 | – | > 100 | > 100 | > 100 | – | – | – | – | – | > 100 | – | – | – | – | –
CC(=O)n1c2ccccc2c2nc3nc(Oc4ccc(C)cc4)c4ccccc4c3cc21 | > 100 | – | > 100 | > 100 | > 100 | > 100 | > 100 | > 100 | > 100 | – | – | – | – | – | – | – | – | – | – | –
